The values that follow come from BindingDB's records for doi:10.7270/Q2QJ7FTF (Burnham Center For Chemical Genomics, 2011).

Broadly, the IC50 is the concentration at which inhibition is half-maximal. A low value points to inhibition by little substance.

The target in the test is T1, C-C chemokine receptor type 6 (Homo sapiens, UniProt P51684).
T1 sequence (P51684 whole entry): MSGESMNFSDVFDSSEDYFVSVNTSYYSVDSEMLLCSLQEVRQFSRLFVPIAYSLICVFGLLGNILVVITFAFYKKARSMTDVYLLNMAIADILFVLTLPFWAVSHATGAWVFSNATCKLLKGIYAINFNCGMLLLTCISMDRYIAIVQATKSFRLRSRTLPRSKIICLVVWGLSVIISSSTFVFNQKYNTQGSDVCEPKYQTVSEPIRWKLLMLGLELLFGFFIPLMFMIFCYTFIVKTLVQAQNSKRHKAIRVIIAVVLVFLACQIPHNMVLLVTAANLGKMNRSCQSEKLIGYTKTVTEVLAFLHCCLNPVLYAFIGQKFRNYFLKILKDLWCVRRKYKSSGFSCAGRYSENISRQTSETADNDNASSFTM
Nature of the test: analog antagonism of CCR6 beta-arrestin signaling – cell-based, luminescent beta-arrestin readout, SAR follow-up (AID 540334).

Turning to `OCC12C=CC(O1)c1c2c(O)n(-c2ccccc2-c2ccccc2)c1O` (configuration not stated) [7-(hydroxymethyl)-2-(2-phenylphenyl)-4,7a-dihydro-3aH-octahydro-1H-4,7-epoxyisoindole-1,3-dione], the IC50 is > 66.6 µM.
`CN1C(=O)C(C2CC(c3ccc(Cl)cc3)N=N2)C(=O)N(C)C1=O` (configuration not stated) [SMR000439471] yielded an IC50 of 5.84 µM.
